Data published in patent publication US8536354B2, “Steroidal ligands and their use in gene switch modulation” (Intrexon Corporation, priority 2008, dated 2013).
pEC50: −log10 of the molar value. Values after ≈ are worked out from the molar mass of the structure shown. Values joined by “and” are separate entries in the source; they are usually repeats but may differ in a detail not shown here. Identical values can stand only once. Like-named read-outs stand apart in the source and are kept apart here.

Key:
[1] = system: D. melanogaster BII cell line (expresses the ecdysteroid receptor complex EcR-USP); assay: Drosophila melanogaster BII cell line bioassay (turbidometric; agonist and antagonist versions)
[2] = target: T1, wild-type Choristoneura fumiferana EcR (CfEcR-DEF) (Choristoneura fumiferana, UniProt O77255); assay: Two-hybrid gene switch assay, wild-type CfEcR-DEF (GAL4-EcR / VP16-RXR-USP chimera, luciferase) in NIH3T3 cells
T1 sequence (O77255 219-541): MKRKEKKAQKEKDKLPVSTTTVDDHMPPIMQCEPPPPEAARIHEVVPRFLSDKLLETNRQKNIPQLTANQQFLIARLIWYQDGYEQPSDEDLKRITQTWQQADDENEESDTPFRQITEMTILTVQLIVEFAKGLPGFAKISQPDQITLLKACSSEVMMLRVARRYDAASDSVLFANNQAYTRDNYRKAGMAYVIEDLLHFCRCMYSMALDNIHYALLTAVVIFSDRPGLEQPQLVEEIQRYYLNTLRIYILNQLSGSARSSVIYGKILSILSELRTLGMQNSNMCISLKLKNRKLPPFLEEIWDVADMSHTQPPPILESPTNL
T1 sequence (P28702 299-449 partner): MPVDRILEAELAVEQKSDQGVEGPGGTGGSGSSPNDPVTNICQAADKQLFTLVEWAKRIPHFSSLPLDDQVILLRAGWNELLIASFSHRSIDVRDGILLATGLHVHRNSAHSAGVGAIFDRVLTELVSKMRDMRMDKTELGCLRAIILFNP

[3] = target: T2, wild-type Aedes aegypti EcR (AaEcR-DEF) (Aedes aegypti, UniProt P49880); assay: Two-hybrid gene switch assay, AaEcR-DEF in NIH3T3 cells; conditions: for pEC50: NIH3T3, Example One
T2 sequence (P49880 405-776 limits assumed): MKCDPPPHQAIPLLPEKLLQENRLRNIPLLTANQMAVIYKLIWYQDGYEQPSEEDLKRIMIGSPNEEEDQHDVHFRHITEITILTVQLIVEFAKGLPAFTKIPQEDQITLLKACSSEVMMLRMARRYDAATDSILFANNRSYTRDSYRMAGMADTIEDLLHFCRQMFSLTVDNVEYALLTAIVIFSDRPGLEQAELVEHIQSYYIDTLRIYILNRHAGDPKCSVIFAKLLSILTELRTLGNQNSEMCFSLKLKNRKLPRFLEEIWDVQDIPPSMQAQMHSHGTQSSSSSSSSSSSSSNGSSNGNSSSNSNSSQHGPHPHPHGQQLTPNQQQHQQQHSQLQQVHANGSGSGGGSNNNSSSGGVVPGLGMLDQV

[4] = Water solubility measurement (saturated solutions, 25° C., UV absorbance)
Description: (§1) Each shake flask was agitated for 60 minutes at room temperature, then allowed to stand for 1 hour at room temperature. […] Absorbance was compared to that of a reference standard at the same absorbance maximum for a 1-2% solution of the same steroid in CH3OH, allowing for up to 10 nM maxima shift due to solvent effect.

[5] = system: EcRs (lepidopteran and non-lepidopteran); assay: Two-hybrid gene switch assays, statements across the set of ten EcRs in NIH3T3 cells; conditions: for activity across the tested set of EcRs: FIGS. 13 and 14
VgEcR/RXR = VgEcR/RXR (Drosophila melanogaster, UniProt P34021, E282G/G283S/G286V)
[6] = target: T3, Manduca sexta EcR (MsEcR) (Manduca sexta, UniProt P49883); assay: Two-hybrid gene switch assay, MsEcR-CDEF in NIH3T3 cells; conditions: MsEcR; alternative 3T3 fibroblast cell stock
T3 sequence (P49883 293-531 limits assumed): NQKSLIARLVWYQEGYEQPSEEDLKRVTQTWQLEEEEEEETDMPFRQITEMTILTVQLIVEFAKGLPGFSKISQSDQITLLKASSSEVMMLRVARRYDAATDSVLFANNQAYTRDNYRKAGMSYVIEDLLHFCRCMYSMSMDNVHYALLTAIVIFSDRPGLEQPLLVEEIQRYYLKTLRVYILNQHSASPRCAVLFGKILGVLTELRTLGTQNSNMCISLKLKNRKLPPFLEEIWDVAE

[7] = target: T4, wild-type Drosophila melanogaster EcR (DmEcR-DEF) (Drosophila melanogaster, UniProt P34021); assay: Two-hybrid gene switch assay, DmEcR-DEF in NIH3T3 cells
T4 sequence (P34021 342-878 limits assumed): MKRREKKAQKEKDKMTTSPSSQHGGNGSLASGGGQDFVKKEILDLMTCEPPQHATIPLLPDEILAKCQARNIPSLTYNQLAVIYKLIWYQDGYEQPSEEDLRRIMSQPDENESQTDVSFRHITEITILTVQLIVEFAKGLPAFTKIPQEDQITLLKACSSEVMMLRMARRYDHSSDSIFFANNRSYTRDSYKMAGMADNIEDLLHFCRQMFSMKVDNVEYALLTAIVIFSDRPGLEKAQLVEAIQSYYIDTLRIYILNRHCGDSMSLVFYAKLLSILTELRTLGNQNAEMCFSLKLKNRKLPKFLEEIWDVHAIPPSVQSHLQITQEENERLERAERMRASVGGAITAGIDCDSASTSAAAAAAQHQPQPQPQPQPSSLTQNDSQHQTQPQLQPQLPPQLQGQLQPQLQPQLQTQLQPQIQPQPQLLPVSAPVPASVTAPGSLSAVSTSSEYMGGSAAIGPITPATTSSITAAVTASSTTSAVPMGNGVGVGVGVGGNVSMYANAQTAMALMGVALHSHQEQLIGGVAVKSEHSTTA

[8] = Log D measurement (shake flask, pH 7.4 buffer / octanol); assay type: physicochemical; conditions: octanol/pH 7.4 buffer (shake flask), pH 7.4 buffer / water-saturated octanol, read-out: Experimental logD
Description: as §1

Bombyx mori EcR (BmEcR) = target: T5, Bombyx mori EcR (BmEcR) (Bombyx mori, UniProt P49881); assay: Two-hybrid gene switch assay, BmEcR in NIH3T3 cells; conditions: BmEcR, Example Two; background FI=3
T5 sequence (P49881 352-589 limits assumed): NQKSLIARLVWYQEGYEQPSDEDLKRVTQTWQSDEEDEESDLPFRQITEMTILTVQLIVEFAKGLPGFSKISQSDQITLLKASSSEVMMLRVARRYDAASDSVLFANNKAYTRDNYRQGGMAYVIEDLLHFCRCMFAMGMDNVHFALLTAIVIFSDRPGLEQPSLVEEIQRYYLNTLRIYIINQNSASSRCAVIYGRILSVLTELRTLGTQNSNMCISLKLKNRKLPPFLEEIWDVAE

[9] = target: Bemisia argentifolii EcR (BaEcR-DEF) (Bemisia argentifolii (Bemisia tabaci biotype B / MEAM1), UniProt A0A6M3RDR8); assay: Two-hybrid gene switch assay, BaEcR-DEF in NIH3T3 cells
[10] = Drosophila melanogaster, read-out: EC50 (M), BII bioassay results
[11] = wt-CfEcR gene switch, NIH3T3, Example One
[12] = read-out: EC50 (M), BII bioassay results, D. melanogaster BII cell line, turbidometric

Chain of VgEcR/RXR (P34021 whole entry E282G/G283S/G286V): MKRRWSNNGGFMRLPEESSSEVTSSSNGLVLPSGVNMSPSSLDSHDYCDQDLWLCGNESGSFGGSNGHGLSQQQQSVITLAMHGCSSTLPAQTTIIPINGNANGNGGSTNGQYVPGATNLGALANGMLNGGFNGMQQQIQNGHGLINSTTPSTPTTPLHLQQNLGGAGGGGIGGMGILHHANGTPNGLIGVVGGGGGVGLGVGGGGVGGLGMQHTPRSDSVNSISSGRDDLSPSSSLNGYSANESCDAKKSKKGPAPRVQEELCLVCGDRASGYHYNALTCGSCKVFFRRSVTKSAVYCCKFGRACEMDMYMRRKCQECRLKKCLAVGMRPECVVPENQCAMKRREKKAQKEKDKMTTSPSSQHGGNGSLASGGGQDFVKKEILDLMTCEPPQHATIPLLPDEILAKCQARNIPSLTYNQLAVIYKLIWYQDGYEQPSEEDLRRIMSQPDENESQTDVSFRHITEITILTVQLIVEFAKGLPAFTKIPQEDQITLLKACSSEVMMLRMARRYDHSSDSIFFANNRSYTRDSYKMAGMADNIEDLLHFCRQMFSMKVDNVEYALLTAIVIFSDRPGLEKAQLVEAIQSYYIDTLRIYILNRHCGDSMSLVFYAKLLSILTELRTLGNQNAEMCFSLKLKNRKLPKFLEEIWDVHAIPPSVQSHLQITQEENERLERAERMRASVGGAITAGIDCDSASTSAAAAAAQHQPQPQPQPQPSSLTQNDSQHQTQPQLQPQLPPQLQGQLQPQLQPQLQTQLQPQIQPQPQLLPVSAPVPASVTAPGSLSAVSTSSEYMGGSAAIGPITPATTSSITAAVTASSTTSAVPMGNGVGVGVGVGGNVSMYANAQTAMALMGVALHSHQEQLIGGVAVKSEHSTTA
Chain of VgEcR/RXR (P19793 whole entry, further chain): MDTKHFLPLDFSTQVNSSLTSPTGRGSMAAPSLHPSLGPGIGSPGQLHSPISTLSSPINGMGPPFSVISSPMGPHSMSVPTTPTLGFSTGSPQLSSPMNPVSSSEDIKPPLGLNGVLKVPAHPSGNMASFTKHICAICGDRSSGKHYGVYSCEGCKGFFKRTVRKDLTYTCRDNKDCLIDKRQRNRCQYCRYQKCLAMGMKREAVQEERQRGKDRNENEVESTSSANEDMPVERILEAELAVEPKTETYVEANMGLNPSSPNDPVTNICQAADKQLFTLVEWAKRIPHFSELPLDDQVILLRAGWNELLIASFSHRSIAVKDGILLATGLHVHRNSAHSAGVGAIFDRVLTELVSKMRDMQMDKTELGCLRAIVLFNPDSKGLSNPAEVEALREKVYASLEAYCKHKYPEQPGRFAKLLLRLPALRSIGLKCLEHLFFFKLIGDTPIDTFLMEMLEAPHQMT
Chain of Bemisia argentifolii EcR (BaEcR-DEF) (P28702 298-449): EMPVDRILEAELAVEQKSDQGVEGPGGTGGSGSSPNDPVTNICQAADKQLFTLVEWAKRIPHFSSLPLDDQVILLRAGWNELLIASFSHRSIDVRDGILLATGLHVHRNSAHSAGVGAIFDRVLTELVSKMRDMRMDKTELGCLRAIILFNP
Chain of Bemisia argentifolii EcR (BaEcR-DEF) (A0A6M3RDR8 entry or part of it): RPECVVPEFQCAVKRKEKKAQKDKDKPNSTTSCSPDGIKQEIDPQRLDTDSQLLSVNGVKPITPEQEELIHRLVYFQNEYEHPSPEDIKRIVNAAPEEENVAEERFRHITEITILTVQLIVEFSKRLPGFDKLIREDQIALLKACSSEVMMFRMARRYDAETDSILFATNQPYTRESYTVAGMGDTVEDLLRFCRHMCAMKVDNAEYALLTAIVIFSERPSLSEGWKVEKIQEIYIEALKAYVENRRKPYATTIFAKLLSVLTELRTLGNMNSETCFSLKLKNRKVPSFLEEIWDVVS

For `CO[C@H](CCC(C)C)[C@](C)(O)C1CC[C@@]2(O)C3=CC(=O)C4C[C@@H](O)[C@@H](O)CC4(C)C3=CCC12C` (stereo partly drawn) [compound 22, dacryhainansterone, 22-methyl ether], the EC50 [1, 10] was 1e-07 M and the “RMFI (relative maximum fold induction, relative to diacylhydrazine 30)” value [2, 11] was ~0.3.

In the case of `CC(C)CC[C@@H](O)[C@](C)(O)[C@H]1CC[C@@]2(O)C3=CC(=O)[C@]4(O)C[C@@H](O)[C@@H](O)C[C@]4(C)[C@H]3[C@H](O)C[C@]12C` [muristerone A], the pEC50 ([3]; AaEcR gene switch) was 8.05, the Experimental aqueous solubility ([4]; 25° C.) was > 2900 µg/mL and the “activity across the tested set of EcRs” value [5] was “active”. For the same compound, the pEC50 (VgEcR/RXR; VgEcR/RXR switch in 3T3 cells) was 6.07, the pEC50 (VgEcR/RXR; VgEcR/RXR system) was 6.07 and the RMFI (VgEcR/RXR; VgEcR/RXR system) was 1.3. It also gave a pEC50 [2, 11] of 5.13.

With `COC1C[C@H]2C(=O)C=C3[C@H](CC[C@]4(C)[C@@H]([C@@](C)(O)C(CCC(C)(C)O)OC)CC[C@@]34O)[C@@]2(C)CC1O` (stereo partly drawn) [compound 12, 20-hydroxyecdysone, 3,22-dimethyl ether] the “potency of ether relative to parent” value [6] was “lose potency” and the EC50 [1, 12] was 2.2e-07 M.

For `CO[C@@H]1C[C@H]2C(=O)C=C3[C@H](CC[C@]4(C)[C@@H]([C@@](C)(O)[C@H](O)CCC(C)(C)O)CC[C@@]34O)[C@@]2(C)C[C@@H]1O` [compound 2, 20-hydroxyecdysone, 3-methyl ether], the “potency of ether relative to parent” value [6] was “lose potency” and the EC50 [1, 12] was 6e-07 M.

For `C=C(C)CC[C@@H](O)[C@](C)(O)[C@H]1CC[C@@]2(O)C3=CC(=O)[C@@H]4C[C@@H](O)[C@@H](O)C[C@]4(C)[C@H]3CC[C@]12C` [isostachysterone C, 25,26-didehydroponasterone A], the “activity across the tested set of EcRs” value [5] was “active”.

In the case of `CO[C@H](CCC(C)C)[C@](C)(O)[C@H]1CC[C@@]2(O)C3=CC(=O)[C@@H]4C[C@@H](O)[C@@H](O)C[C@]4(C)[C@H]3CC[C@]12C` [PoA-22-methyl ether], the “rel max FI (diacylhydrazine), AA” value ([3]; AaEcR, relative to 3,5-dimethyl-benzoic acid N-tert-butyl-N′-(2-ethyl-3-methoxy-benzoyl)-hydrazide) was ~0.8, the EC50 ([3]; EC50 (μM), AA, AaEcR, NIH3T3 cells, luciferase, 48 h, ligand 0.01-33 μM) was < 0.01 µM and the “rel max FI (diacylhydrazine), DM” value ([7]; DmEcR, relative to 3,5-dimethyl-benzoic acid N-tert-butyl-N′-(2-ethyl-3-methoxy-benzoyl)-hydrazide) was ~0.9. For the same compound, the EC50 ([7]; EC50 (μM), DM, DmEcR, NIH3T3 cells, luciferase, 48 h, ligand 0.01-33 μM) was ~0.03 µM, the pEC50 [2] was ~5.70 and the Emax ([2]; NIH3T3, 48 h, read-out: rel max FI (diacylhydrazine), CF) was 30 to 65%.

With `CCO[C@H](CCC(C)(C)O)[C@](C)(O)C1CC[C@@]2(O)C3=CC(=O)C4C[C@@H](O)[C@@H](O)CC4(C)C3CCC12C` (stereo partly drawn) [compound 5, 20-hydroxyecdysone-22-ethyl ether] the “BII potency relative to 20E” value [1] was “slightly less potent than methyl”, the EC50 [1, 10] was 2.2e-08 M and the pEC50 [2] was 5.31. For the same compound, the activation at 5 µM ([2]; NIH3T3, 48 h, read-out: reporter gene induction, % of maximum fold induction) was 77% and the “RMFI (relative maximum fold induction, relative to diacylhydrazine 30)” value [2, 11] was 0.77.

With `CCc1c(OC)cccc1C(=O)NN(C(=O)c1cc(C)cc(C)c1)C(C)(C)C` [diacylhydrazine 30] the logD [8] was 3.4, the “diacylhydrazine reference FI” value (Bombyx mori EcR (BmEcR)) was 1776 and the “potency as activator of AaEcR” value ([3]; Example Two) was “single digit nM”. It also gave a pEC50 [9] of 5.22, a solubility ([4]; 25 °C, thermodynamic from solid) of 6.2 µg/mL (≈ 16.2 µM) and a pEC50 ([5]; read-out: potency (EC50), lepidopteran receptors) of 7.70 to 8.52. For the same compound, the fold induction at 1 µM ([2]; NIH3T3, 48 h, read-out: reference FI (1 microM)) was 806.

With `CO[C@H](CCC(C)C)[C@](C)(O)[C@H]1CC[C@@]2(O)C3=CC(=O)[C@@H]4C[C@@H](O)[C@@H](O)C[C@]4(C)[C@H]3CC[C@]12C` [compound 18, ponasterone A, 22-methyl ether] the pEC50 ([3]; EC50, AaEcR gene switch) was 9.42, the pEC50 ([7]; EC50, DmEcR gene switch, NIH3T3, Example One) was 7.18 and ~7.18 and the pEC50 (VgEcR/RXR; EC50, VgEcR/RXR switch in 3T3 cells) was 6.26. It also gave a pEC50 (VgEcR/RXR; EC50, VgEcR/RXR system) of 6.27, an RMFI (VgEcR/RXR; VgEcR/RXR system) of 1.5 and an EC50 [1, 10] of 2.2e-08 M. For the same compound, the “RMFI (relative maximum fold induction, relative to diacylhydrazine 30)” value [2, 11] was ~0.6.

In the case of `CO[C@H](CCC(C)(C)O)[C@](C)(O)C1CC[C@@]2(O)C3=CC(=O)C4C[C@@H](O)[C@@H](O)CC4(C)C3CCC12C` (stereo partly drawn) [compound 4, 20-hydroxyecdysone-22-methyl ether], the “potency of ether relative to parent” value [6] was “lose potency”, the “BII potency relative to 20E” value [1] was “maintains 20E potency” and the EC50 [1, 10] was 6.3e-09 M. The EC50 ([1]; Drosophila melanogaster, read-out: −log EC50 (converted)) was 6.31e-09 M.

With `CC(C)(O)CC[C@@H](OCc1ccccc1)[C@](C)(O)C1CC[C@@]2(O)C3=CC(=O)C4C[C@@H](O)[C@@H](O)CC4(C)C3CCC12C` (stereo partly drawn) [compound 9, 20-hydroxyecdysone, 22-benzyl ether] the “BII potency relative to 20E” value [1] was “does not decrease 20E potency very much” and the EC50 [1, 10] was 2.2e-08 M.
